Test results from PMC6150381, “Design, Synthesis, and Biological Evaluation of N,N-Disubstituted-4-arylthiazole-2-methylamine Derivatives as Cholesteryl Ester Transfer Inhibitors” (Molecules : A Journal of Synthetic Chemistry and Natural …, 2017).
Read-outs that look alike come from different tables or passages of the source. Each block holds one compound with its values, some of them ahead of it.

Experiments:
[1] = design: method as in PMID 26047975; settings: phase II clinical trials; ref [18]; cited from earlier work
recombinant CETP [2] = target: T1, recombinant CETP (Homo sapiens, UniProt P11597); design: method as in previous work; settings: in Figure 2; ref previous work; cited from earlier work
T1 construct: purchased Roar, New York, NY, USA RB-RPAK
T1 sequence (P11597 18-493): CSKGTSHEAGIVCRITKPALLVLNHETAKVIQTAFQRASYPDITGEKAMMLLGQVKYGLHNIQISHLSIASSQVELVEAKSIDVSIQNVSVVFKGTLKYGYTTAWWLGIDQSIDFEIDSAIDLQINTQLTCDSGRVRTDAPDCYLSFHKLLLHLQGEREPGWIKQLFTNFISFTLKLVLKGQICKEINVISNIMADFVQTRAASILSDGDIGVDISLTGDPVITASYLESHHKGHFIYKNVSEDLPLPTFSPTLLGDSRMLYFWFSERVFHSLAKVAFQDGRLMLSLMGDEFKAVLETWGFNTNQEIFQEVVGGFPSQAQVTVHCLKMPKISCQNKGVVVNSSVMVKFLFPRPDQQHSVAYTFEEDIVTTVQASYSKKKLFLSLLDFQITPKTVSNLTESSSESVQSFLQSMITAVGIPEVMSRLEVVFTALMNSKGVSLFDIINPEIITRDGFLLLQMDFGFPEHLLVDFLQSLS

recombinant CETP [3] = target: T1, recombinant CETP; assay: In vitro CETP inhibitory assay (BODIPY-CE fluorescence assay, CETP RP Activity Assay Kit); format: biochemical; settings: CETP inhibition, eight-point titration, each concentration tested three times
Method: The IC50 was determined from a curve fit of the data with each concentration tested three times.

[4] = In vitro metabolic stability study, human liver microsomes; format: in vitro ADME; settings: for Remaining (T = 60 min): human liver microsome, with NADPH regenerating system; for microsomal CLint at 10 µM: human, liver microsomes, read-out: CL (clearance rate)
Method: (§1) Ten microliters (10 μL, 100 μM/L) of compounds and 80 μL of liver microsomes were mixed and incubated at 37 °C for 10 min, and then 10 μL of NADPH regenerating system was added. Samples were obtained at 0 min, 5 min, 10 min, 20 min, 30 min and 60 min. respectively, and 300 μL stop solution (cold in 4 °C, including 100 ng/mL tolbutamide and 100 ng/mL labetalol) was added to terminate the reaction. After oscillating for 10 min, the plates were centrifuged (4000 rpm) at room temperature for 20 min, and the supernatants were used for analysis.

[5] = In vitro metabolic stability study, rat liver microsomes; format: in vitro ADME; settings: for Remaining (NCF = 60 min) / Remaining (T = 60 min): rat liver microsome; for Remaining (NCF = 60 min): no co-factor (no NADPH regenerating system); for Remaining (T = 60 min): with NADPH regenerating system; for microsomal CLint at 10 µM: rat, liver microsomes, read-out: CL (clearance rate)
Method: as §1

[6] = In vitro metabolic stability study, human liver microsomes; format: in vitro ADME; settings: human liver microsome, no co-factor (no NADPH regenerating system)
[7] = ref [12],[13],[14], cited from earlier work

SMILES: CCOC(=O)N1c2ccc(C(F)(F)F)cc2[C@@H](N(Cc2cc(C(F)(F)F)cc(C(F)(F)F)c2)c2ncc(OCCCC(=O)O)cn2)C[C@H]1CC [AMG-899]
increased HDL-C levels [1]: 179.1%
reduced LDL-C levels [1]: 45.3%

SMILES: O=C(CCN(Cc1ccc(F)cc1)c1cccc(Oc2ccccc2)c1)Nc1ccccc1 [Compound 5]
IC50 (recombinant CETP [2]): 24.8 µM

SMILES: CCOC(=O)N1c2ccc(C(F)(F)F)cc2[C@@H](N(Cc2cc(C(F)(F)F)cc(C(F)(F)F)c2)C(=O)OC)C[C@H]1CC [torcetrapib]
increase of HDL-C ([7]; human studies, dose-dependent): greater than 100%
LDL-C decreasing ([7]; human studies): up to 42%
increase in deaths ([7]; torcetrapib/atorvastatin group compared to the atorvastatin group): 58%

The remaining lines, values ahead:

IC50 (recombinant CETP [3]): 0.97 ± 0.01 µM
Remaining (T = 60 min) [4]: 39.3%
microsomal CLint at 10 µM [4]: 29.8 µL/min/mg
Remaining (NCF = 60 min) [5]: 101.3%
Remaining (T = 60 min) [5]: 10.1%
microsomal CLint at 10 µM [5]: 79.3 µL/min/mg
melting point: 88.7 to 89.5 °C
Remaining (NCF = 60 min) [6]: 69.1%
SMILES: COc1ccc(N(Cc2ccc(F)cc2)Cc2nc(-c3ccc(C(F)(F)F)cc3)cs2)cc1OC [Compound 32, N-(4-Fluorobenzyl)-3,4-dimethoxy-N-((4-(4-(trifluoromethyl)phenyl)thiazol-2-yl)methyl)aniline]

IC50 (recombinant CETP [3]): 0.79 ± 0.02 µM
metabolic stability (in words) ([4]; human and rat liver microsomes): weak human/rat liver microsome stability
Remaining (T = 60 min) [4]: 22.9%
microsomal CLint at 10 µM [4]: 48.1 µL/min/mg
Remaining (NCF = 60 min) [5]: 90.5%
Remaining (T = 60 min) [5]: 3.2%
microsomal CLint at 10 µM [5]: 122 µL/min/mg
melting point: 111 to 112.8 °C
Remaining (NCF = 60 min) [6]: 68.0%
SMILES: COc1ccc(N(Cc2ccc(F)cc2)Cc2nc(-c3ccc([N+](=O)[O-])cc3)cs2)cc1OC [Compound 30, N-(4-Fluorobenzyl)-3,4-dimethoxy-N-((4-(4-nitrophenyl)thiazol-2-yl)methyl)aniline]

IC50 (recombinant CETP [3]): 15.3 ± 0.17 µM
melting point: 143.6 to 145.8 °C
SMILES: COc1ccc(N(Cc2ccc(F)cc2)Cc2nc(-c3ccc(NC(=O)C(F)(F)F)cc3)cs2)cc1OC [Compound 45, N-(4-(2-(((3,4-Dimethoxyphenyl)(4-fluorobenzyl)amino)methyl)thiazol-4-yl)phenyl)-2,2,2-trifluoroacetamide]

IC50 (recombinant CETP [3]): 16.7 ± 0.23 µM
melting point: 144.7 to 146.2 °C
SMILES: COc1ccc(N(Cc2ccc(F)cc2)Cc2nc(-c3ccc(N)cc3)cs2)cc1OC [Compound 44, N-((4-(4-Aminophenyl)thiazol-2-yl)methyl)-N-(4-fluorobenzyl)-3,4-dimethoxyaniline]
